Results published in patent US20210145838A1, “SELECTIVE PDE4D INHIBITORS AGAINST DEMYELINATING DISEASES” (Universiteit Hasselt, priority 2018, published 2021).

Tested on: cuprizone demyelinated mice
Assay: Object location task (spatial memory) in cuprizone-demyelinated mice
Type: in vivo, mouse
Conditions: for Spatial discrimination index (d2), object location task: day 45 and 47; for Spatial memory in the object location task (D2): day 47, 3 h inter-trial-interval
Text: FIG. 11: Inhibition of PDE4 by roflumilast improves spatial memory upon cuprizone-induced demyelination—a functional measure for remyelination. Forty-two nine-weeks-old male C57bl6 mice were trained for the object location task (OLT) as described previously (Sierksma et al. 2014) (day −14−0). Subsequently, three groups were fed a 0.3% cuprizone diet for 6 weeks to induce demyelination while the control group received a regular chow diet (day 0-42). From day 40 till day 49, control (n=10) and vehicle (n=10) treated animals received a s.c. injection with a 1% DMSO in 0.5% methylcellulose solution or roflumilast (roflu 1 mg/kg (n=11) or roflu 3 mg/kg (n=11) in vehicle) twice a day. All animals were sacrificed at day 49 (A). During the last phase of the cuprizone treatment (demyelination), the OLT was performed at the 3 h inter-trial-interval at day 39.
Next, the OLT was performed during remyelination following cuprizone withdrawal, respectively at 47. […] A one sample t-test was performed to test for spatial memory (e.g. D2≠0*p<0.05; **p<0.01; ***p<0.001). […] All mice not reaching an exploration time of 4 s in either of two trials were excluded from analyses. Extreme values were excluded by means of Dixon's principles of exclusion of extreme values.
FIG. 14: Inhibition of PDE4D by Gebr32a improves spatial memory upon cuprizone-induced demyelination—a functional measure for remyelination. Eighty-eight nine-weeks-old male C57bl6 mice were trained for the object location task (OLT; n=22 per group) as described previously (Sierksma et al. 2014) (day −14−0). Subsequently, three groups were fed a 0.3% cuprizone diet for 6 weeks to induce demyelination while the control group received a regular chow diet (day 0-42). From day 40 till day 49, control and vehicle treated animals received a s.c. injection with a 1% DMSO in 0.5% methylcellulose solution or gebr32a (0.1 mg/kg or 0.3 mg/kg in vehicle) twice a day. All animals were sacrificed at day 49 (A).
Next, the OLT was performed during remyelination following cuprizone withdrawal, respectively at day 45 and 47.
A one sample t-test was performed to test for spatial memory (e.g. D2=/0; *p<0.05; **p<0.01; ***p<0.001). A one-way ANOVA with a Tukey's multiple comparison test was performed. All mice not reaching an exploration time of 4 s in either of two trials were excluded from analyses. Extreme values were calculated and excluded by means of Dixon's principles of exclusion of extreme values.
At the start of the experiment, all animals were phenotyped for baseline cognitive performance in the object location task. Afterwards, 4 groups were defined (n1=13, n2=16, n3=11, n4=11) and group 2, 3 and 4 were subjected to a 0.3% w/w cuprizone diet (Bis(cyclohexanone)-oxaldihydrazone) (Sigma-Aldrich, United States) for 42 days. […]

OC(CN1CCOCC1)Cn1ccc(-c2ccc(OC(F)F)c(OC3CCCC3)c2)n1 (stereo not shown) [Gebr32a]
Spatial discrimination index (d2), object location task (0.1 mg/kg s.c. twice a day): restored the spatial discrimination index (d2) to a level comparable to that of the control animals
Spatial discrimination index (d2), object location task (0.3 mg/kg s.c. twice a day): restored the spatial discrimination index (d2) to a level comparable to that of the control animals

O=C(Nc1c(Cl)cncc1Cl)c1ccc(OC(F)F)c(OCC2CC2)c1 [roflumilast]
Spatial memory in the object location task (D2) (1 mg/kg s.c. twice a day): did not show a recovery of the spatial memory
Spatial memory in the object location task (D2) (3 mg/kg s.c. twice a day): significant recovery of spatial memory
